Where two headings read alike, the source gives them in different places.
Columns and labels:
[1] = system: advanced stage/recurrent endometrial cancer; details: advanced stage / metastatic and recurrent endometrial cancer patients, cited from earlier work
HEC-1A xenograft = HEC-1A xenograft mouse model; assay type: in vivo, nude mice; details: oral gavage daily, 5 weeks; Pterostilbene 30 mg/kg, megestrol acetate 10 mg/kg, or both; versus vehicle
Description: Animal models. All animal studies were carried out under protocols approved by the Institutional Animal Care and Use Committee (IACUC) at City of Hope in accordance with all applicable federal, state, and local requirements and institutional guidelines. HEC-1A cells (2×10^6 in 100 μl) were inoculated subcutaneously into the right flank of 6- to 8-week-old female nude mice. Once the tumors were palpable, animals were randomized into groups of 10 to achieve an equal distribution of tumor sizes in all treatment groups. Mice were then treated by oral gavage daily with vehicle, Pterostilbene (30 mg/kg), megestrol acetate (10 mg/kg), or a combination of both agents. The doses for these two drugs were chosen based on previously published studies. Tumor volumes were assessed using calipers twice a week. Tumor volumes were determined using the formula (Width)^2×Length×0.52. Body weight was monitored weekly as an indicator of drug-induced toxicity and overall health of the mice.
Statistical analysis. Data are presented as mean±S.D. Student's t-test was used to compare the means of two groups. All the experiments were repeated 2 to 4 times. P<0.05 was considered statistically significant.

[2] = system: cell survival molecules and cell cycle molecules (caspase 3, PARP, BCL-2, BCL-xl, cyclin D1, cyclin B1, CDK4); assay: Western blot of cell survival and cell cycle molecules in HEC-1A cells; assay type: cell-based, Human; details: 24 h, single agents at various concentrations, combination 75 μM each
Description: (§1) Western blot analysis. Western blots were performed as described previously^55,56 Cells were grown in complete medium overnight and treated with DMSO or drugs at various concentrations for 24 hrs. Cells were washed in cold PBS and lysed in RIPA lysis buffer (Thermo Scientific) containing Halt protease and phosphatase inhibitors (Thermo Scientific). Proteins were quantified using BCA protein assay reagent (Thermo Scientific). Equal amounts of protein were separated by SDS-polyacrylamide gel electrophoresis, transferred to polyvinylidene fluoride membranes and incubated with total and phosphorylated protein-specific antibodies. Binding of the primary antibody was detected using a horseradish peroxidase (HRP)-conjugated secondary antibody and chemiluminescent substrates (Thermo Scientific).

[3] = system: p-STAT3, p-AKT, p-ERK and ER-α; assay: Western blot of cell signaling molecules in HEC-1A cells; assay type: cell-based, Human; details: 24 h, single agents at various concentrations, combination 75 μM each
Description: as §1

[4] = compared to Resveratrol; cited from earlier work
[5] = recent clinical trial; cited from earlier work
HEC-1A cells = assay: Cell viability assay (MTS / acid phosphatase), combination index by Chou-Talalay; assay type: cell-based; details: Homo sapiens, read-out: IC50 (concentration for 50% growth inhibition), pterostilbene alone, 48 h, one range printed for both cell lines
Description: (§2) Cell Culture. Human endometrial cancer cell lines HEC-1A and ECC-1 cells were from American Type Culture Collection (Rockville, Md.). […] All cells were grown in 5% (v/v) CO2 at 37° C.
(§3) Cell viability assays. Cells (4000 per well) were plated in 96-well plate format in 100 μl growth medium. Cells were treated with DMSO or drugs the next day at the indicated concentrations and incubated for an additional 2-3 days. Viable cells were determined either by the MTS assay (Promega, Madison, Wis., USA) or the acid phosphatase assay^53,54. For the MTS assay, 25 μl MTS solution was added directly into each well according to the manufacturer's instructions. For the acid phosphatase assay, all the media was removed and p-nitrophenyl phosphate substrate (10 mM 100 μl) was added into each well and incubated at 37° C. for 45 mins. […] The IC50 was determined using the Calcusyn software (Biosoft, Ferguson, Mo.).
(§4) Determination of combination index (CI). The combination index (CI) was determined using the Chou-Talalay method^37 using the Calcusyn software (Biosoft, MO).

ECC-1 cells = assay: as above; assay type: cell-based; details: Homo sapiens, ECC-1, read-out: IC50 (concentration for 50% growth inhibition), pterostilbene alone, 48 h, one range printed for both cell lines
Description: as §2, §3, §4

Row | Molecule | Response rate [1] | Response rate ([1]; listed as MA) | Tumor growth reduction (tumor volume and tumor weight) (HEC-1A xenograft) | Cleavage of caspase 3 [2] | Expression of BCL-2 and BCL-xl [2] | Expression of cyclin D1, cyclin B1 and CDK4 [2] | ER expression [3] | Expression of p-ERK1/2 [3] | Expression of p-STAT3 and p-AKT [3] | Bioavailability [4] | Dose generally safe for use in humans [5] | IC50 (HEC-1A cells) [µM] | IC50 (ECC-1 cells) [µM]
1 | megestrol acetate [reference compound] | 20-30% | 25-30% | non-significant | little effect | little effect | little impact | did not significantly alter | did not significantly alter | did not significantly alter |  |  |  | 
2 | COc1cc(/C=C/c2ccc(O)cc2)cc(OC)c1 [pterostilbene] |  |  | non-significant | increased cleavage | decrease | inhibited | slightly decreased | no significant effect | no significant effect | superior bioavailability as compared to Resveratrol | up to 250 mg/day | 72 to 78 | 72 to 78

Reference: US11389460B2, “Methods and compositions for treating endometrial cancer” (City of Hope, priority 2017, dated 2022)
